Source: patent US9072301B2 (priority 2012, dated 2015)

Row | SMILES | melting point
1 | CC1OC(=O)c2ncnc(NCCc3ccc(Oc4ccnc(C(F)(F)F)c4)cc3F)c21 (centres unmarked) | 159 °C
2 | COc1cc(CCNc2ncnc3cnn(C)c23)ccc1Oc1ccnc(C(F)(F)F)c1 [I-10, N-[2-[3-methoxy-4-[[2-(trifluoromethyl)-4-pyridyl]oxy]phenyl]ethyl]-1-methyl-pyrazolo[4,3-d]pyrimidin-7-amine] | 178 °C
